{"source": "patent US9351941B2", "about": "“Radiofrequency-induced synchronization of in situ hyperthermia and chemotherapy via magnetic-nanoconjugates” (National Cheng Kung University, priority 2012, dated 2016)", "tested_on": "tumor", "experiment": "targeting hyperthermia and chemotherapy through tail vein injection with RF treatment (FIG. 8)", "format": "in vivo, C3H/HeN mice", "details": "5-FU injection alone, 770 nM, equivalent to total nanoparticle loaded drugs", "protocol": "In addition, in an embodiment according to the present invention, targeting hyperthermia and chemotherapy through tail vein injection of the 5-FU-loaded Fe3O4@anti-HER2 nanoparticle (500 μg/mL) in a serial single daily dose for four consecutive days are evaluated. RF treatments are given 24 h after the nanoparticle had been injected. […] This indicates nanoparticle accumulation within tumor dissipate sufficient heat to generate hyperthermia effect.\nGroups of male C3H/HeN mice 6-8 weeks old in this experiment were given a tail-vein injection of 200 μL 5-FU-loaded Fe3O4@anti-HER2 magnetic nanoparticle in PBS ([…]) or of PBS alone. One group of mice was sacrificed 24 h after the tail-vein injection. The rest of the mice were given 15 min RF treatment 24 h after the tail-vein injection. Twenty-four hours after the RF treatment, the mice were overdosed with the anesthetics ketamine and xylazine (8.7 mg/100 g and 1.3 mg/100 g), and their major organs (brain, heart, lungs, spleen, liver, kidneys) and blood were collected. Each organ was homogenized and dissolved in nitro-hydrochloric acid. The sample solutions were continuously shaken for two days to ensure Fe dissociation. All samples were filtered before analyzed using atomic absorption spectrometer (Solar M6 series; Unicam, UK). […]", "data": [{"smiles": "O=c1[nH]cc(F)c(=O)[nH]1", "note": "[5-FU, 5-fluorouracil]", "values": [{"measurement": "tumor growth", "value": "unable to suppress tumor growth"}]}]}
